Where “and” joins values, the source holds several entries; their conditions need not be identical. Equal values may be shown once. Read-outs that look alike come from different tables or passages of the source.
Test: TED14856 Part A: plasma pharmacokinetics of compound (1)
Format: in vivo, human
Conditions: for AUC(0-t) / Cmax / Vd/F / Tmax: human, plasma, oral; for Tmax: read-out: tmax (median)
[1] = repeated 20 mg once daily, Cycle1 Day 22, fasted, N=3
[2] = repeated 150 mg once daily, Cycle1 Day 22, fasted, N=2
[3] = repeated 200 mg once daily, Cycle1 Day 22, fasted, N=3
[4] = repeated 400 mg once daily, Cycle1 Day 22, fasted, N=3
[5] = repeated 600 mg once daily, Cycle1 Day 22, fasted, N=3
[6] = single 20 mg, Cycle1 Day 1, fasted, N = 1
[7] = single 150 mg, Cycle1 Day 1, fasted, N = 1
[8] = single 200 mg, Cycle1 Day 1, fasted, N=4
[9] = single 400 mg, Cycle1 Day 1, fasted, N=3
[10] = single 600 mg, Cycle1 Day 1, fasted, N = 2

O=C(O)c1ccc2c(c1)CCCC(c1ccc(Cl)cc1Cl)=C2c1ccc(O[C@H]2CCN(CCCF)C2)cc1 [compound (1), 6-(2,4-dichlorophenyl)-5-[4-[(3S)-1-(3-fluoropropyl)pyrrolidin-3-yl]oxyphenyl]-8,9-dihydro-7H-benzo[7]annulene-2-carboxylic acid]
AUC(0-t) (400 mg, single 400 mg, Cycle1 Day 1, fasted, N=3, read-out: AUC0-24 (Geometric Mean)): 37.6 µg·h/mL
AUC(0-t) (400 mg, single 400 mg, Cycle1 Day 1, fasted, N=3, read-out: AUC0-24 (Mean ± SD)): 40.4 ± 17.5 µg·h/mL
Cmax (400 mg, single 400 mg, Cycle1 Day 1, fasted, N=3, read-out: Cmax (Geometric Mean)): 4.12 µg/mL
Vd/F (400 mg, single 400 mg, Cycle1 Day 1, fasted, N=3, read-out: Vss/F (Geometric Mean)): 112 L
Vd/F (400 mg, single 400 mg, Cycle1 Day 1, fasted, N=3, read-out: Vss/F (Mean ± SD)): 117 ± 40.6 L
Tmax (400 mg, single 400 mg, Cycle1 Day 1, fasted, N=3): 3 h
AUC(0-t) (600 mg, repeated 600 mg once daily, Cycle1 Day 22, fasted, N=3, read-out: AUC0-24 (Geometric Mean)): 41.7 µg·h/mL
AUC(0-t) (600 mg, repeated 600 mg once daily, Cycle1 Day 22, fasted, N=3, read-out: AUC0-24 (Mean ± SD)): 42.7 ± 11.2 µg·h/mL
Cmax (600 mg, repeated 600 mg once daily, Cycle1 Day 22, fasted, N=3, read-out: Cmax (Geometric Mean)): 5.51 µg/mL
Cmax (600 mg, repeated 600 mg once daily, Cycle1 Day 22, fasted, N=3, read-out: Cmax (Mean ± SD)): 5.57 ± 0.962 µg/mL
Tmax (600 mg, repeated 600 mg once daily, Cycle1 Day 22, fasted, N=3): 3 h
Vd/F (600 mg, single 600 mg, Cycle1 Day 1, fasted, N = 2, read-out: Vss/F (Geometric Mean)): 132 L
Vd/F (600 mg, single 600 mg, Cycle1 Day 1, fasted, N = 2, read-out: Vss/F (Mean ± SD)): 137 L
AUC(0-t) (600 mg, single 600 mg, Cycle1 Day 1, fasted, N=3, read-out: AUC0-24 (Geometric Mean)): 53.4 µg·h/mL
AUC(0-t) (600 mg, single 600 mg, Cycle1 Day 1, fasted, N=3, read-out: AUC0-24 (Mean ± SD)): 61.1 ± 36.3 µg·h/mL
Cmax (600 mg, single 600 mg, Cycle1 Day 1, fasted, N=3, read-out: Cmax (Geometric Mean)): 6.16 µg/mL
Cmax (600 mg, single 600 mg, Cycle1 Day 1, fasted, N=3, read-out: Cmax (Mean ± SD)): 7.01 ± 4.18 µg/mL
Tmax (600 mg, single 600 mg, Cycle1 Day 1, fasted, N=3): 3.03 h
accumulation on Day 21/22 (once-daily administrations up to 200 mg): moderate accumulation
accumulation on Day 21/22 (once-daily, doses higher than 200 mg): no accumulation
CLss/F (Mean ± SD) [1]: 18.0 ± 13.7 L/h
Ctrough (Mean ± SD) [1]: 8.10 ± 7.16 ng/mL
CLss/F (Mean ± SD) [2]: 10.6 NC L/hr
Ctrough (Geometric Mean) [2]: (115) [NC] ng/mL
Ctrough (Mean ± SD) [2]: 126 NC ng/mL
CLss/F (Mean ± SD) [3]: 15.3 ± 4.30 L/h
Ctrough (Geometric Mean) [3]: (59.2) [73.6] ng/mL
Ctrough (Mean ± SD) [3]: 76.1 ± 56.0 ng/mL
CLss/F (Mean ± SD) [4]: 18.1 ± 17.4 L/h
Ctrough (Geometric Mean) [4]: (253) [84.2] ng/mL
Ctrough (Mean ± SD) [4]: 388 ng/mL and 388 ± 327 ng/mL
CLss/F (Mean ± SD) [5]: 14.7 ± 3.96 L/h
Ctrough (Geometric Mean) [5]: (314) [56.8] ng/mL
Ctrough (Mean ± SD) [5]: 348 ± 197 ng/mL
CL/F (Mean ± SD) [6]: 12.2 NC L/hr
t1/2z (Geometric Mean) [6]: (4.86) [NC]^b hr
t1/2z (Mean ± SD) [6]: 4.86 NC hr
CL/F (Mean ± SD) [7]: 7.26 NC L/hr
t1/2z (Geometric Mean) [7]: (6.42) [NC]^b hr
t1/2z (Mean ± SD) [7]: 6.42 NC hr
CL/F (Mean ± SD) [8]: 24.2 ± 17.0 L/h
t1/2z (Geometric Mean) [8]: (7.31) [19.5] hr
t1/2z (Mean ± SD) [8]: 7.41 ± 1.45 h
CL/F (Mean ± SD) [9]: 9.86 ± 5.77 L/h
t1/2z (Mean ± SD) [9]: 10.6 ± 2.33 h
CL/F (Mean ± SD) [10]: 15.2 NC L/hr
t1/2z (Geometric Mean) [10]: (8.97) [NC]^c hr
t1/2z (Mean ± SD) [10]: 9.45 NC hr
accumulation after repeated oral administration (up to 600 mg): limited accumulation
dose proportionality of exposure (Cmax, AUC0-24h) (up to 600 mg, single or multiple once daily administrations): did not deviate significantly from dose proportionality

Source: patent publication US20200352905A1, “6-(2,4-DICHLOROPHENYL)-5-[4-[(3S)-1-(3-FLUOROPROPYL)PYRROLIDIN-3-YL]OXYPHENYL]-8,9-DIHYDRO-7H-BENZO[7]ANNULENE-2-CARBOXYLIC ACID FOR USE IN METASTATIC OR ADVANCED BREAST CANCER PATIENTS” (SANOFI, priority 2019, published 2020)
